The text below walks through data of patent publication US20260347338A1, “PYRIMIDINE/PYRIDINE DERIVATIVES OR SALTS THEREOF AND PHARMACEUTICAL COMPOSITIONS COMPRISING THE SAME” (YUHAN CORPORATION, priority 2023, published 2026).

Where a name gives a salt, the structure may show the parent alone.

For this experiment, the target named is T1, human recombinant HPK1 (Homo sapiens, UniProt Q92918).
T1 construct: purchased BPS Bioscience
The experiment is described as follows: Inhibitory activity against human recombinant HPK1 (TR-FRET). It is filed as biochemical. The conditions noted are these: ULight-p70S6K peptide, ATP at Km, room temperature, 1 hour, 0.32 to 1000 nM compound. An outline of the steps:
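IC50 classes A–D use 10, 50 and 100 nM cut-offs, derived from TR-FRET signal inhibition relative to DMSO controls. Human recombinant HPK1 phosphorylated ULight-p70S6K peptide at Km ATP for 1 h, room temperature, pH 7.4; test range 0.32–1000 nM final, detection with Eu-labelled antibody after EDTA quench.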

A word on the IC50: it is the concentration at which inhibition is half-maximal.

T1 sequence (Q92918 whole entry): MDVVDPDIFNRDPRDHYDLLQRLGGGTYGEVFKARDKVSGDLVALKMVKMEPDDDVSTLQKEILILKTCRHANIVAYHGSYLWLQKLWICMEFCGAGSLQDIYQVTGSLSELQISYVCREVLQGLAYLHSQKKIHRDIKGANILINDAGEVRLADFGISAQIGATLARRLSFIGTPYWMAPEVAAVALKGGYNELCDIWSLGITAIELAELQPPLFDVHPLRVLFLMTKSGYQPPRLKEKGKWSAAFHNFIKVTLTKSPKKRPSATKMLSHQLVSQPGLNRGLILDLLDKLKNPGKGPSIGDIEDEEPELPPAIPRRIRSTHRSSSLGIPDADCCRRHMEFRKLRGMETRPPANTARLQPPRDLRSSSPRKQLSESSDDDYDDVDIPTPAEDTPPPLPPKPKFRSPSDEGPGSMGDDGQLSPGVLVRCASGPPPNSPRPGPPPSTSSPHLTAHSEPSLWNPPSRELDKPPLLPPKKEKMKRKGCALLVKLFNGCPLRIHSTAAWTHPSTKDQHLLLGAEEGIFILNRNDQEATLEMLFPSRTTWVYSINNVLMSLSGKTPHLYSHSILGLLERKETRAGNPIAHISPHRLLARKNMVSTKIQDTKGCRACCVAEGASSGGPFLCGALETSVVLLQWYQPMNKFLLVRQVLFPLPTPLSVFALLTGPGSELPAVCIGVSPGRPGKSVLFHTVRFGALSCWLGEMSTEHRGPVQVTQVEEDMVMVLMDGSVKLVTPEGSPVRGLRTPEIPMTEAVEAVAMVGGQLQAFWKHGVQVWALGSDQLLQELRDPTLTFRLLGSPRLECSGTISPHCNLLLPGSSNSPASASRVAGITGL

Take `Nc1cncc(-c2nccc(Nc3cc(N4CCC[C@H](O)C4)c(C(=O)C4CC4)cn3)n2)c1` [Example 2, (S)-(6-((2-(5-aminopyridin-3-yl)pyrimidin-4-yl)amino)-4-(3-hydroxypiperidin-1-yl)pyridin-3-yl)(cyclopropyl)methanone]: the IC50 was 10 to 50 nM.
As for `COc1cccc(F)c1-c1nccc(Nc2cc(N3CCC[C@H](O)C3)c(C#Cc3cnn(C(F)(F)F)c3)cn2)n1` [Example 8, (S)-1-(2-((2-(2-fluoro-6-methoxyphenyl)pyrimidin-4-yl)amino)-5-((1-(trifluoromethyl)-1H-pyrazol-4-yl)ethynyl)pyridin-4-yl)piperidin-3-ol], the figure is 10 to 50 nM.
As for `COc1cc(CO)cc(F)c1-c1nccc(Nc2cc(N3CCC[C@H](N)C3)c(-c3cnn(CC(F)(F)F)c3)cn2)n1` [Example 102, (S)-(4-(4-((4-(3-aminopiperidin-1-yl)-5-(1-(2,2,2-trifluoroethyl)-1H-pyrazol-4-yl)pyridin-2-yl)amino)pyrimidin-2-yl)-3-fluoro-5-methoxyphenyl)methanol hydrochloride], the figure is not above 10 nM; as for `COc1cccc(F)c1-c1nccc(Nc2cc(N3CCC(CCN(C)C)CC3)c(-c3cnn(C4CCOCC4)c3)cn2)n1` [Example 64, N-(4-(4-(2-(dimethylamino)ethyl)piperidin-1-yl)-5-(1-(tetrahydro-2H-pyran-4-yl)-1H-pyrazol-4-yl)pyridin-2-yl)-2-(2-fluoro-6-methoxyphenyl)pyrimidin-4-amine], not above 10 nM.
The value for `COc1cccc(F)c1-c1nccc(Nc2cc(N3CCC[C@H](N)C3)c(-c3cnn(CCN(C)C)c3)cn2)n1` [Example 246, (S)-N-(4-(3-aminopiperidin-1-yl)-5-(1-(2-(dimethylamino)ethyl)-1H-pyrazol-4-yl)pyridin-2-yl)-2-(2-fluoro-6-methoxyphenyl)pyrimidin-4-amine hydrochloride] was not above 10 nM.
`COc1cccc(F)c1-c1nc(Nc2cc(N3CCC[C@H](N)C3)c(-c3cnn(CC(F)(F)F)c3)cn2)ccc1F` [Example 100, 4-((S)-3-aminopiperidin-1-yl)-N-(5-fluoro-6-(2-fluoro-6-methoxyphenyl)pyridin-2-yl)-5-(1-(2,2,2-trifluoroethyl)-1H-pyrazol-4-yl)pyridin-2-amine hydrochloride]: the IC50 is not above 10 nM.
As for `COc1cccc(F)c1-c1nccc(Nc2cc(N3CCC[C@H](O)C3)c(C#CC3CCOCC3)cn2)n1` [Example 11, (S)-1-(2-((2-(2-fluoro-6-methoxyphenyl)pyrimidin-4-yl)amino)-5-((tetrahydro-2H-pyran-4-yl)ethynyl)pyridin-4-yl)piperidin-3-ol], the figure is not above 10 nM; as for `COc1cccc(F)c1-c1nccc(Nc2cc(N3CC[C@@H](N)[C@H](C)C3)c(-c3cnn(C(F)F)c3)cn2)n1` [Example 268, N-(4-((3R,4R)-4-amino-3-methylpiperidin-1-yl)-5-(1-(difluoromethyl)-1H-pyrazol-4-yl)pyridin-2-yl)-2-(2-fluoro-6-methoxyphenyl)pyrimidin-4-amine hydrochloride], not above 10 nM.
Consider `COc1cccc(F)c1-c1nccc(Nc2cc(N3CCC[C@H](N)C3)c(-c3cnn(CC(F)(F)F)c3)nn2)n1` [Example 175, (S)-5-(3-aminopiperidin-1-yl)-N-(2-(2-fluoro-6-methoxyphenyl)pyrimidin-4-yl)-6-(1-(2,2,2-trifluoroethyl)-1H-pyrazol-4-yl)pyridazin-3-amine hydrochloride], for which the half-maximal inhibitory concentration (IC50) is not above 10 nM.
The value for `COc1cccc(F)c1-c1nccc(Nc2cc(N3CCC[C@H](O)C3)c(-c3ccc(CN4CCOCC4)nc3)cn2)n1` [Example 32, (S)-1-(6-((2-(2-fluoro-6-methoxyphenyl)pyrimidin-4-yl)amino)-6′-(morpholinomethyl)-[3,3′-bipyridin]-4-yl)piperidin-3-ol] was 10 to 50 nM; that for `COc1cccc(F)c1-c1nc(Nc2cc(N3CCC[C@H](N)C3)c(-c3cnn(CC(F)(F)F)c3)cn2)ccc1C#N` [Example 318, 6-((4-((S)-3-aminopiperidin-1-yl)-5-(1-(2,2,2-trifluoroethyl)-1H-pyrazol-4-yl)pyridin-2-yl)amino)-2-(2-fluoro-6-methoxyphenyl)nicotinonitrile hydrochloride] was not above 10 nM; that for `COc1cccc(F)c1-c1nc(Nc2cc(N3CCC[C@H](N)C3)c(-c3cnn(C(F)F)c3)cn2)ccc1F` [Example 76, 4-((S)-3-aminopiperidin-1-yl)-5-(1-(difluoromethyl)-1H-pyrazol-4-yl)-N-(5-fluoro-6-(2-fluoro-6-methoxyphenyl)pyridin-2-yl)pyridin-2-amine hydrochloride] was not above 10 nM.
As for `COc1cccc(F)c1-c1nccc(Nc2cc(N3CCC[C@H](N)C3)c(C#Cc3cnn(CC(F)(F)F)c3)cn2)n1` [Example 166, (S)-N-(4-(3-aminopiperidin-1-yl)-5-((1-(2,2,2-trifluoroethyl)-1H-pyrazol-4-yl)ethynyl)pyridin-2-yl)-2-(2-fluoro-6-methoxyphenyl)pyrimidin-4-amine hydrochloride], the IC50 is not above 10 nM.
The value for `COc1cccc(F)c1-c1nc(Nc2cc(N3CCC[C@H](N)C3)c(-c3cnn(CC(F)F)c3)cn2)ccc1[N+](=O)[O-]` [Example 152, 4-((S)-3-aminopiperidin-1-yl)-5-(1-(2,2-difluoroethyl)-1H-pyrazol-4-yl)-N-(6-(2-fluoro-6-methoxyphenyl)-5-nitropyridin-2-yl)pyridin-2-amine hydrochloride] was not above 10 nM; that for `COc1cccc(F)c1-c1nc(Nc2cc(N3CCC[C@H](N)C3)c(-c3cnn(C(C)C)c3)cn2)ccc1C#N` [Example 328, 6-((4-((S)-3-aminopiperidin-1-yl)-5-(1-isopropyl-1H-pyrazol-4-yl)pyridin-2-yl)amino)-2-(2-fluoro-6-methoxyphenyl)nicotinonitrile hydrochloride] was not above 10 nM.
Regarding `COc1cccc(F)c1-c1nccc(Nc2cc(N3CCC4(CCN(C)C4)CC3)c(-c3ccc(N4CCOCC4)nc3)cn2)n1` [Example 137, N-(2-(2-fluoro-6-methoxyphenyl)pyrimidin-4-yl)-4-(2-methyl-2,8-diazaspiro[4.5]decan-8-yl)-6′-morpholino-[3,3′-bipyridin]-6-amine], the IC50 was not above 10 nM.
The value for `COc1cccc(F)c1-c1nccc(Nc2cc(N3CCC[C@H](N)C3)c(-c3ccc(N4CCCC4=O)cc3)cn2)n1` [Example 259, (S)-1-(4-(4-(3-aminopiperidin-1-yl)-6-((2-(2-fluoro-6-methoxyphenyl)pyrimidin-4-yl)amino)pyridin-3-yl)phenyl)pyrrolidin-2-one hydrochloride] was not above 10 nM; that for `COc1cccc(F)c1-c1nc(Nc2cc(N3CCC[C@H](N)C3)c(-c3cnn(C(F)F)c3)cn2)ccc1S(C)(=O)=O` [Example 315, 4-((S)-3-aminopiperidin-1-yl)-5-(1-(difluoromethyl)-1H-pyrazol-4-yl)-N-(6-(2-fluoro-6-methoxyphenyl)-5-(methylsulfonyl)pyridin-2-yl)pyridin-2-amine hydrochloride] was not above 10 nM; that for `COc1cccc(F)c1-c1nc(Nc2cc(N3CC[C@@H](F)[C@H](N)C3)c(-c3cnn(C(F)F)c3)cn2)ccc1[N+](=O)[O-]` [Example 334, 4-((3R,4R)-3-amino-4-fluoropiperidin-1-yl)-5-(1-(difluoromethyl)-1H-pyrazol-4-yl)-N-(6-(2-fluoro-6-methoxyphenyl)-5-nitropyridin-2-yl)pyridin-2-amine hydrochloride] was not above 10 nM.
As for `COc1cccc(F)c1-c1nc(Nc2cc(N3CCC[C@H](O)C3)c(C(=O)NC3CC(F)(F)C3)cn2)ccc1[N+](=O)[O-]` [Example 198, N-(3,3-difluorocyclobutyl)-6-((6-(2-fluoro-6-methoxyphenyl)-5-nitropyridin-2-yl)amino)-4-((S)-3-hydroxypiperidin-1-yl)nicotinamide], the figure is not above 10 nM; as for `COc1cccc(F)c1-c1nccc(Nc2cc(N3CC(O)C3)c(C(=O)C3CC3)cn2)n1` [Example 6, cyclopropyl(6-((2-(2-fluoro-6-methoxyphenyl)pyrimidin-4-yl)amino)-4-(3-hydroxyazetidin-1-yl)pyridin-3-yl)methanone], 10 to 50 nM.
As for `COc1cccc(F)c1-c1nccc(Nc2cc(N3CCC(CO)(CC(F)F)CC3)c(-c3cnn(C4CCOCC4)c3)cn2)n1` [Example 47, (4-(2,2-difluoroethyl)-1-(2-((2-(2-fluoro-6-methoxyphenyl)pyrimidin-4-yl)amino)-5-(1-(tetrahydro-2H-pyran-4-yl)-1H-pyrazol-4-yl)pyridin-4-yl)piperidin-4-yl)methanol], the figure is not above 10 nM.
As for `COc1cccc(F)c1-c1nccc(Nc2cc(N3CCC[C@H](N)C3)c(-c3ccc(N4CCCC4)nc3)cn2)n1` [Example 119, (S)-4-(3-aminopiperidin-1-yl)-N-(2-(2-fluoro-6-methoxyphenyl)pyrimidin-4-yl)-6′-(pyrrolidin-1-yl)-[3,3′-bipyridin]-6-amine hydrochloride], the IC50 was not above 10 nM.
For the compound `COc1cccc(F)c1-c1nccc(Nc2cc(N3CCC[C@H](N)C3)c(-c3ccc(C4CCNCC4)nc3)cn2)n1` [Example 248, (S)-4-(3-aminopiperidin-1-yl)-N-(2-(2-fluoro-6-methoxyphenyl)pyrimidin-4-yl)-6′-(piperidin-4-yl)-[3,3′-bipyridin]-6-amine hydrochloride], the IC50 is not above 10 nM.
As for `COc1cccc(F)c1-c1nc(Nc2cc(N3CCC[C@H](O)C3)c(C(=O)N[C@@H]3CC[C@H]3O)cn2)ccc1[N+](=O)[O-]` [Example 197, 6-((6-(2-fluoro-6-methoxyphenyl)-5-nitropyridin-2-yl)amino)-N-((1R,2R)-2-hydroxycyclobutyl)-4-((S)-3-hydroxypiperidin-1-yl)nicotinamide], the figure is not above 10 nM.
